This is an account of results in patent publication US20030154517A1, “Efficiency agrobacterium-mediated wheat transformation method” (priority 2001, published 2003).

Where “and” joins values, the source holds several entries; their conditions need not be identical. Equal values may be shown once. Read-outs that look alike come from different tables or passages of the source.

The test system of assay [1] is immature embryos of wheat. As to the kind of experiment: Agrobacterium-mediated wheat transformation, nptII (G418/kanamycin) selection (transformation efficiency). It is filed as cell-based, Triticum aestivum L. From the text:
(§1) Immature embryos of wheat (Triticum aestivum L) cv Bobwhite were isolated from the immature caryopsis (wheat spikelets) 12-15 days after pollination, and cultured on CM4C (Table 2) for 1-8 days, most typically for 4-6. The embryos without embryogenic callus were selected for Agrobacterium inoculation.
A disarmed Agrobacterium strain C58 (ABI) harboring a binary vector was used for all the experiments. […] The Agrobacterium cells were resuspended in the inoculation medium and the density was adjusted to an OD660 of 1. […] An equal amount of the Agrobacterium cell suspension was added such that the final concentration of Agrobacterium cells was an OD660 of 0.5. In most experiments, pluronic F68 was added to the inoculation mixture at a final concentration of 0.01%. The ratio between the Agrobacterium and immature embryos (IEs) was about 10 mL: 20-200 IEs. The conditions for inoculation were temperatures from about 23° C.-26° C. with a duration from about 5-60 minutes.
(§2) After the inoculation period, the remaining Agrobacterium cells were removed from the explants by using the in-house vacuum equipment. A piece of sterile Whatman No. 1 filter paper (to fit the size of the petri plate) was placed in each of 60×15 or 60×20 mm petri dishes without additional liquid or agar-supplemented media. Two hundred microliters of sterile water was placed in the middle of the filter paper. After 2-3 minutes, the inoculated immature embryos were placed in the plates. Usually, 20-50 explants are grouped as one stack (about 1 cm in size and 60-80 mg/stack), with 4-5 stacks on each plate. The plates were immediately parafilmed and then co-cultivated in the dark at 24° C.-26° C. for 2-3 days.
For nptII selection, immature embryos were isolated, precultured, inoculated, and co-cultured as previously described. After the 3-day co-culture, embryos were transferred to delay culture (solid CM4C2D) media (CM4C media as in Table 2 with 2 mg/L 2,4-D) with 500 mg/L carbenicillin for 7 days in the dark at 25° C. Selection was done in liquid CM4C media (as in Table 2 without the Phytagel) with 100 mg/L carbenicillin and 20 mg/L G418 on a support for 7 days in the dark followed by 7 days in the light (16 hr photoperiod), at 25° C. The calli were then transferred to liquid MMS0.2C media (as in Table 2 without the gelling agent) with 100 mg/L carbenicillin and 25 mg/L G418 on a support for 2 weeks at 25° C. with a 16 hr photoperiod. After 2 weeks, the calli were transferred to liquid MMSOC media (as in Table 2 without the gelling agent) with 100 mg/L carbenicillin and 25 mg/L G418 on a support for 2 to 4 weeks at 25° C. with a 16 hr photoperiod. Plantlets were transferred to solid MMSOC media with 100 mg/L carbenicillin and 25 mg/L G418 in sundae cups for 1 to 4 weeks at 25° C. with a 16 hr photoperiod.

In assay [2] the test system is immature embryos of wheat (Triticum aestivum L) cv Bobwhite. The assay is described as follows: Agrobacterium-mediated wheat transformation, glyphosate selection (transformation efficiency). It counts as cell-based.
Excerpt: as §1
A disarmed Agrobacterium strain C58 (ABI) harboring a binary vector was used for all the experiments. For the control experiments, cultures of Agrobacterium were initiated from glycerol stocks or from a freshly streaked plate and grown overnight at 26° C.-28° C. with shaking (approximately 150 rpm) to mid-log phase (about OD660=1-1.5) in liquid LB medium, pH 7.0 (Miller, 1972) containing 50 mg/L kanamycin, 50 mg/L streptomycin and spectinomycin, and 25 mg/L chloramphenicol with 200 μM acetosyringone (AS). The Agrobacterium cells were resuspended in the inoculation medium and the density was adjusted to an OD660 of 1. The immature embryos cultured in CM4C medium were transferred into sterile petri plates (16×20 mm) or wells of a 6-well cell culture plate (Costar Corporation, Cambridge, Mass.) containing 10 mL of inoculation medium per petri plate or 5 mL per cell culture cluster plate. An equal amount of the Agrobacterium cell suspension was added such that the final concentration of Agrobacterium cells was an OD660 of 0.5. In most experiments, pluronic F68 was added to the inoculation mixture at a final concentration of 0.01%. The ratio between the Agrobacterium and immature embryos (IEs) was about 10 mL: 20-200 IEs. The conditions for inoculation were temperatures from about 23° C.-26° C. with a duration from about 5-60 minutes.
as §2
After a 3-day co-cultivation, the Agrobacterium-infected precultured immature embryos (PCIE) and embryogenic calli were transferred to CM4C medium (Table 2) supplemented with 500 mg/L carbenicillin and cultured for about seven days. This “delay” medium could also contain glyphosate as discussed in Example 4.
The explants were then transferred to CM4C selection medium with 2 mM glyphosate and 500 mg/L carbenicillin for one week in the dark. All the calli were transferred to MMS0.2C (Table 2) supplemented with 0.1 mM glyphosate and 250 mg/L carbenicillin (first regeneration medium) for an additional two weeks of selection with lighting conditions of about 80 μE. […] All the embryogenic calli were transferred to the second regeneration medium MMS0C (Table 2) supplemented with 500 mg/L carbenicillin and 0.02 mM glyphosate. Aromatic amino acids including I-tryptophan, L-tyrosine, and I-phenylalanine (10^−7 mM/amino acid) were added to this medium to facilitate the selection. These tissues were transferred to fresh media every two weeks. […] Once the root system was established, the plants were transferred to soil and subsequently assayed. […]

For assay [3] the test system is unchanged. The assay is described as above. It counts as cell-based. This is another data set of the same source.
[4] abbreviates: Table 19: compound at 2 μM in second regeneration stage (MMSOC media).
[5] abbreviates: Table 19: compound at 20 μM in second regeneration stage (MMSOC media).
Where [6] appears, read: Table 19 compounds at the concentrations tested (2 and/or 20 μM) in MMSOC.

Take `[Cl][Cu][Cl]` [Copper chloride]: in assay [1] (setting [4]), the “% TE” value is 16.8% and the Independent transgenic events/explants is 37/220. In addition, in assay [1] (setting [5]), the “% TE” value came to 24.2% and the Independent transgenic events/explants was 55/227.
As for Copper acetate, in assay [1], the “% TE” value stood at 23.0% and the Independent transgenic events/explants is given as 53/230.
For the molecule `O=S(=O)([O-])[O-].[Mn+2]` [Manganese sulfate], in assay [1] (setting [5]), the “% TE” value came to 4.2% and the Independent transgenic events/explants was 8/189. In addition, the “effectiveness at increasing TE” value in assay [1] (setting [6]) is “not effective”.
Turning to `O=S(=O)([O-])[O-].[Zn+2]` [Zinc sulfate], in assay [1], the Independent transgenic events/explants is 12/219 and 17/107; the “effectiveness at increasing TE” value is “not effective”. Besides, the “% TE” value in assay [1] (setting [4]) is recorded as 5.5%. The “% TE” value in assay [1] (setting [5]) amounted to 15.9%.
As for `[Cl][Co][Cl]` [Cobalt chloride], in assay [1] (setting [5]), the “% TE” value was 9.2% and the Independent transgenic events/explants was 19/207. In addition, in assay [1] (setting [6]), the “effectiveness at increasing TE” value is “more effective than the negative control”.
In the case of `O=C(O)CNCP(=O)(O)O` [glyphosate], the TE % in assay [2] (0.02 mM glyphosate in preculture and delay culture media (CM4C), per experiment and Total, listed as gly) was 3.7% and 3.8% and 4.9% and 8.3% and 2.4%; in assay [2] (selection 7 days in CM4C + 2 mM glyphosate, per experiment and Total), 5.2% and 1.5% and 4.4% and 3.1% and 4% and 2.2%; in assay [3] (selection 10 days in CM4C + 2 mM glyphosate, per experiment and Total), 8.6% and 1.25% and 6.4% and 4.8% and 7.3% and 5.3%. In addition, the Efficiency % in assay [2] (0.1 mM gly in MMS0.2C first regeneration medium, per experiment and Total, listed as gly) was 4.7% and 1.6% and 2.3% and 0.0% and 2.9%; in assay [2] (Table 9b treatment 1: MMS0.2C + 0.1 Gly, two experiments and Total, listed as Gly) it was 4.8% and 6.8% and 8.9%; in assay [3] (0.5 mM gly in MMS0.2C first regeneration medium, per experiment and Total, listed as gly), 1.5% and 7.9% and 2.8% and 3.7% and 3.0%; in assay [3] (1.0 mM gly in MMS0.2C first regeneration medium, per experiment and Total, listed as gly), 5.0% and 5.3% and 4.2% and 2.5%; in assay [3] (Table 9b treatment 2: MMS0.2C + 0.5 Gly, two experiments and Total, listed as Gly), 7.7% and 10.7% and 13.7%. Further, the “transformation efficiency” value in assay [2] (glyphosate at 0.02 mM in preculture and delay culture media) is given as “significantly improved”.
Take `[Cl-].[Cl-].[Mg+2]` [Magnesium chloride]: in assay [1], the “% TE” value is on record as 3.0%, the Independent transgenic events/explants is reported as 7/231 and the “effectiveness at increasing TE” value was “not effective”.
